{
  "source": "patent US12629365B2",
  "about": "“Pharmaceutical compositions of 5-HT6 receptor antagonist” (SUVEN LIFE SCIENCES LIMITED, priority 2016, dated 2026)",
  "assay": "BCS classification",
  "format": "physicochemical",
  "conditions": "based on our experimental results",
  "data": [
    {"smiles": "COc1ccc2c(c1)c(CN1CCN(C)CC1)cn2S(=O)(=O)c1ccccc1Br", "note": "[Compound 1, 1-[(2-Bromophenyl)sulfonyl]-5-methoxy-3-[(4-methyl-1-piperazinyl)methyl]-1H-indole dimesylate monohydrate]", "values": [
      {"measurement": "BCS classification", "value": "class I"}
    ]}
  ]
}
